We go through 20 molecules from patent publication US20230093099A1, “COMPOUNDS AND METHODS OF TREATING CANCERS” (CULLGEN (SHANGHAI), INC., priority 2019, published 2023).

SMILES strings stand for the structures.

The test system of this test is RS4;11 cells. Briefly: Cell viability assay (CellTiter-Glo) in RS4;11 cells. It is filed as cell-based. The note with it: Homo sapiens, 72 h; RS4;11 cells; cell viability, 3 days, CellTiter-Glo; read-out: IC50. An outline of the steps:
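Three-day compound treatment of RS4;11 ALL cells (5000/well, 3-fold dilution series of 8 or 12 points), with IC50 from a nonlinear least-squares fit to CellTiter-Glo viability data.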
For orientation: Cellular ATP, detected with luciferase, serves as a proxy for viable cell number.
For `O=C1CCC(N2Cc3ccc(NCCCCCC(=O)N4CCC(n5cc(-c6cnc7cccc(-c8cc(F)c(CN9CCOCC9)c(F)c8)c7n6)cn5)CC4)cc3C2=O)C(=O)N1` (centres unmarked) [JA-272, 3-(6-((6-(4-(4-(8-(3,5-Difluoro-4-(morpholinomethyl)phenyl)quinoxalin-2-yl)-1H-pyrazol-1-yl)piperidin-1-yl)-6-oxohexyl)amino)-1-oxoisoindolin-2-yl)piperidine-2,6-dione], the IC50 is 520 nM.

As to `O=C1CCC(N2Cc3cc(NCCCCCC(=O)N4CCC(n5cc(-c6cnc7cccc(-c8cc(F)c(CN9CCOCC9)c(F)c8)c7n6)cn5)CC4)ccc3C2=O)C(=O)N1` (centres unmarked) [JA-273, 3-(5-((6-(4-(4-(8-(3,5-difluoro-4-(morpholinomethyl)phenyl)quinoxalin-2-yl)-1H-pyrazol-1-yl)piperidin-1-yl)-6-oxohexyl)amino)-1-oxoisoindolin-2-yl)piperidine-2,6-dione], the IC50 came out at 66 nM.

`O=C1CCC(N2Cc3ccc(OCCCCCC(=O)N4CCC(n5cc(-c6cnc7cccc(-c8cc(F)c(CN9CCOCC9)c(F)c8)c7n6)cn5)CC4)cc3C2=O)C(=O)N1` (centres unmarked) [JA-274, 3-(6-((6-(4-(4-(8-(3,5-Difluoro-4-(morpholinomethyl)phenyl)quinoxalin-2-yl)-1H-pyrazol-1-yl)piperidin-1-yl)-6-oxohexyl)oxy)-1-oxoisoindolin-2-yl)piperidine-2,6-dione]: the 50% inhibitory concentration (IC50) is 1670 nM.

As for `CS(=O)(=O)c1ccc(-c2cccc3nc(Nc4ccc(N5CCN(C(=O)CCCCCNc6ccc7c(c6)CN(C6CCC(=O)NC6=O)C7=O)CC5)cc4)nn23)cc1` (centres unmarked) [JA-275, 3-(5-((6-(4-(4-((5-(4-(Methylsulfonyl)phenyl)-[1,2,4]triazolo[1,5-a]pyridin-2-yl)amino)phenyl)piperazin-1-yl)-6-oxohexyl)amino)-1-oxoisoindolin-2-yl)piperidine-2,6-dione], the IC50 was found to be 176 nM.

Consider `CS(=O)(=O)c1ccc(-c2cccc3nc(Nc4ccc(N5CCN(C(=O)CCCCCNc6ccc7c(c6)C(=O)N(C6CCC(=O)NC6=O)C7)CC5)cc4)nn23)cc1` (centres unmarked) [JA-276, 3-(6-((6-(4-(4-((5-(4-(Methylsulfonyl)phenyl)-[1,2,4]triazolo[1,5-a]pyridin-2-yl)amino)phenyl)piperazin-1-yl)-6-oxohexyl)amino)-1-oxoisoindolin-2-yl)piperidine-2,6-dione], for which the IC50 was greater than 10000 nM.

Take `CS(=O)(=O)c1ccc(-c2cccc3nc(Nc4ccc(N5CCN(C(=O)CCCCCOc6ccc7c(c6)C(=O)N(C6CCC(=O)NC6=O)C7)CC5)cc4)nn23)cc1` (centres unmarked) [JA-277, 3-(6-((6-(4-(4-((5-(4-(Methylsulfonyl)phenyl)-[1,2,4]triazolo[1,5-a]pyridin-2-yl)amino)phenyl)piperazin-1-yl)-6-oxohexyl)oxy)-1-oxoisoindolin-2-yl)piperidine-2,6-dione]: the IC50 was determined as 447 nM.

Regarding `O=C1CCC(n2c(=O)n(CCCCCC(=O)N3CCC(n4cc(-c5cnc6cccc(-c7cc(F)c(CN8CCOCC8)c(F)c7)c6n5)cn4)CC3)c3ccccc32)C(=O)N1` (centres unmarked) [JA-278, 3-(3-(6-(4-(4-(8-(3,5-Difluoro-4-(morpholinomethyl)phenyl)quinoxalin-2-yl)-1H-pyrazol-1-yl)piperidin-1-yl)-6-oxohexyl)-2-oxo-2,3-dihydro-1H-benzo[d]imidazol-1-yl)piperidine-2,6-dione], the IC50 was greater than 500 nM.

Consider `O=C1CCC(n2c(=O)n(CCCCCCC(=O)N3CCC(n4cc(-c5cnc6cccc(-c7cc(F)c(CN8CCOCC8)c(F)c7)c6n5)cn4)CC3)c3ccccc32)C(=O)N1` (centres unmarked) [JA-279, 3-(3-(7-(4-(4-(8-(3,5-Difluoro-4-(morpholinomethyl)phenyl)quinoxalin-2-yl)-1H-pyrazol-1-yl)piperidin-1-yl)-7-oxoheptyl)-2-oxo-2,3-dihydro-1H-benzo[d]imidazol-1-yl)piperidine-2,6-dione], for which the IC50 is greater than 500 nM.

With `CS(=O)(=O)c1ccc(-c2cccc3nc(Nc4ccc(N5CCN(C(=O)CCCCCn6c(=O)n(C7CCC(=O)NC7=O)c7ccccc76)CC5)cc4)nn23)cc1` (centres unmarked) [JA-280, 3-(3-(6-(4-(4-((5-(4-(Methylsulfonyl)phenyl)-[1,2,4]triazolo[1,5-a]pyridin-2-yl)amino)phenyl)piperazin-1-yl)-6-oxohexyl)-2-oxo-2,3-dihydro-1H-benzo[d]imidazol-1-yl)piperidine-2,6-dione], the IC50 was greater than 500 nM.

Consider `CS(=O)(=O)c1ccc(-c2cccc3nc(Nc4ccc(N5CCN(C(=O)CCCCCCn6c(=O)n(C7CCC(=O)NC7=O)c7ccccc76)CC5)cc4)nn23)cc1` (centres unmarked) [JA-281, 3-(3-(7-(4-(4-((5-(4-(Methylsulfonyl)phenyl)-[1,2,4]triazolo[1,5-a]pyridin-2-yl)amino)phenyl)piperazin-1-yl)-7-oxoheptyl)-2-oxo-2,3-dihydro-1H-benzo[d]imidazol-1-yl)piperidine-2,6-dione], for which the IC50 was greater than 500 nM.

`Cn1c(=O)n(C2CCC(=O)NC2=O)c2cccc(NCCCCCC(=O)N3CCC(n4cc(-c5cnc6cccc(-c7cc(F)c(CN8CCOCC8)c(F)c7)c6n5)cn4)CC3)c21` (centres unmarked) [JA-282, 3-(4-((6-(4-(4-(8-(3,5-Difluoro-4-(morpholinomethyl)phenyl)quinoxalin-2-yl)-1H-pyrazol-1-yl)piperidin-1-yl)-6-oxohexyl)amino)-3-methyl-2-oxo-2,3-dihydro-1H-benzo[d]imidazol-1-yl)piperidine-2,6-dione]: the IC50 was greater than 500 nM.

`Cn1c(=O)n(C2CCC(=O)NC2=O)c2cccc(NCCCCCCC(=O)N3CCC(n4cc(-c5cnc6cccc(-c7cc(F)c(CN8CCOCC8)c(F)c7)c6n5)cn4)CC3)c21` (centres unmarked) [JA-283, 3-(4-((7-(4-(4-(8-(3,5-Difluoro-4-(morpholinomethyl)phenyl)quinoxalin-2-yl)-1H-pyrazol-1-yl)piperidin-1-yl)-7-oxoheptyl)amino)-3-methyl-2-oxo-2,3-dihydro-1H-benzo[d]imidazol-1-yl)piperidine-2,6-dione]: the IC50 was greater than 500 nM.

As to `Cn1c(=O)n(C2CCC(=O)NC2=O)c2cccc(NCCCCCC(=O)N3CCN(c4ccc(Nc5nc6cccc(-c7ccc(S(C)(=O)=O)cc7)n6n5)cc4)CC3)c21` (centres unmarked) [JA-284, 3-(3-Methyl-4-((6-(4-(4-((5-(4-(methylsulfonyl)phenyl)-[1,2,4]triazolo[1,5-a]pyridin-2-yl)amino)phenyl)piperazin-1-yl)-6-oxohexyl)amino)-2-oxo-2,3-dihydro-1H-benzo[d]imidazol-1-yl)piperidine-2,6-dione], the IC50 is greater than 500 nM.

Consider `Cn1c(=O)n(C2CCC(=O)NC2=O)c2cccc(NCCCCCCC(=O)N3CCN(c4ccc(Nc5nc6cccc(-c7ccc(S(C)(=O)=O)cc7)n6n5)cc4)CC3)c21` (centres unmarked) [JA-285, 3-(3-Methyl-4-((7-(4-(4-((5-(4-(methylsulfonyl)phenyl)-[1,2,4]triazolo[1,5-a]pyridin-2-yl)amino)phenyl)piperazin-1-yl)-7-oxoheptyl)amino)-2-oxo-2,3-dihydro-1H-benzo[d]imidazol-1-yl)piperidine-2,6-dione], for which the IC50 is greater than 500 nM.

As for `Cn1c(=O)n(C2CCC(=O)NC2=O)c2cccc(NCCCCC(=O)N3CCC(n4cc(-c5cnc6cccc(-c7cc(F)c(CN8CCOCC8)c(F)c7)c6n5)cn4)CC3)c21` (centres unmarked) [JA-286, 3-(4-((5-(4-(4-(8-(3,5-Difluoro-4-(morpholinomethyl)phenyl)quinoxalin-2-yl)-1H-pyrazol-1-yl)piperidin-1-yl)-5-oxopentyl)amino)-3-methyl-2-oxo-2,3-dihydro-1H-benzo[d]imidazol-1-yl)piperidine-2,6-dione], the concentration for half-maximal inhibition (IC50) is greater than 500 nM.

With `Cn1c(=O)n(C2CCC(=O)NC2=O)c2ccc(NCCCCC(=O)N3CCC(n4cc(-c5cnc6cccc(-c7cc(F)c(CN8CCOCC8)c(F)c7)c6n5)cn4)CC3)cc21` (centres unmarked) [JA-287, 3-(5-((5-(4-(4-(8-(3,5-Difluoro-4-(morpholinomethyl)phenyl)quinoxalin-2-yl)-1H-pyrazol-1-yl)piperidin-1-yl)-5-oxopentyl)amino)-3-methyl-2-oxo-2,3-dihydro-1H-benzo[d]imidazol-1-yl)piperidine-2,6-dione], the IC50 is greater than 500 nM.

With `Cn1c(=O)n(C2CCC(=O)NC2=O)c2ccc(NCCCCCC(=O)N3CCC(n4cc(-c5cnc6cccc(-c7cc(F)c(CN8CCOCC8)c(F)c7)c6n5)cn4)CC3)cc21` (centres unmarked) [JA-288, 3-(5-((6-(4-(4-(8-(3,5-Difluoro-4-(morpholinomethyl)phenyl)quinoxalin-2-yl)-1H-pyrazol-1-yl)piperidin-1-yl)-6-oxohexyl)amino)-3-methyl-2-oxo-2,3-dihydro-1H-benzo[d]imidazol-1-yl)piperidine-2,6-dione], the IC50 is greater than 500 nM.

`Cn1c(=O)n(C2CCC(=O)NC2=O)c2ccc(NCCCCCCC(=O)N3CCC(n4cc(-c5cnc6cccc(-c7cc(F)c(CN8CCOCC8)c(F)c7)c6n5)cn4)CC3)cc21` (centres unmarked) [JA-289, 3-(5-((7-(4-(4-(8-(3,5-Difluoro-4-(morpholinomethyl)phenyl)quinoxalin-2-yl)-1H-pyrazol-1-yl)piperidin-1-yl)-7-oxoheptyl)amino)-3-methyl-2-oxo-2,3-dihydro-1H-benzo[d]imidazol-1-yl)piperidine-2,6-dione]: the IC50 was greater than 500 nM.

As for `Cn1c(=O)n(C2CCC(=O)NC2=O)c2cccc(NCCCCC(=O)N3CCN(c4ccc(Nc5nc6cccc(-c7ccc(S(C)(=O)=O)cc7)n6n5)cc4)CC3)c21` (centres unmarked) [JA-290, 3-(3-Methyl-4-((5-(4-(4-((5-(4-(methylsulfonyl)phenyl)-[1,2,4]triazolo[1,5-a]pyridin-2-yl)amino)phenyl)piperazin-1-yl)-5-oxopentyl)amino)-2-oxo-2,3-dihydro-1H-benzo[d]imidazol-1-yl)piperidine-2,6-dione], the IC50 is greater than 500 nM.

Consider `Cn1c(=O)n(C2CCC(=O)NC2=O)c2ccc(NCCCCC(=O)N3CCN(c4ccc(Nc5nc6cccc(-c7ccc(S(C)(=O)=O)cc7)n6n5)cc4)CC3)cc21` (centres unmarked) [JA-291, 3-(3-Methyl-5-((5-(4-(4-((5-(4-(methylsulfonyl)phenyl)-[1,2,4]triazolo[1,5-a]pyridin-2-yl)amino)phenyl)piperazin-1-yl)-5-oxopentyl)amino)-2-oxo-2,3-dihydro-1H-benzo[d]imidazol-1-yl)piperidine-2,6-dione], for which the IC50 is greater than 500 nM.

In general, IC50 refers to the point on the concentration scale where inhibition reaches its midpoint.
